Measured values as given in ChEMBL document CHEMBL4270632, “CD73 inhibition by purine cytotoxic nucleoside analogue-based diphosphonates” (Eur J Med Chem, 2018).
Calls of active or inactive are those of the source. The rule behind the calls is not given here.

Tests used:
CCRF-CEM = assay: Cytotoxicity against human CCRF-CEM cells assessed as decrease in cell viability after 72 hrs by MTT assay; assay type: cell-based
Granta = assay: Cytotoxicity against human Granta cells assessed as decrease in cell viability after 72 hrs by MTT assay; assay type: cell-based
5'-nucleotidase [1] = biological target: T1, 5'-nucleotidase (Homo sapiens, UniProt P21589); assay: Inhibition of recombinant CD73 (27 to 549 residues) (unknown origin) expressed in baculovirus infected Sf9 insect cells assessed as reduction in conversion of AMP to adenosine incubated for 1 min followed by AMP addition measured after 3.5 mins by malachite green reagent based assay
5'-nucleotidase [2] = biological target: T1, 5'-nucleotidase; assay: Inhibition of CD73 in human MDA-MB-231 cells assessed as reduction in conversion of AMP to adenosine incubated for 30 mins by malachite green reagent based assay; assay type: cell-based
5'-nucleotidase [3] = biological target: T1, 5'-nucleotidase; assay: Inhibition of CD73 in human NCI-H292 cells assessed as reduction in conversion of AMP to adenosine incubated for 30 mins by malachite green reagent based assay; assay type: cell-based
RL = assay: Cytotoxicity against human RL cells assessed as decrease in cell viability after 72 hrs by MTT assay; assay type: cell-based
HL-60 = assay: Cytotoxicity against human HL60 cells assessed as decrease in cell viability after 72 hrs by MTT assay; assay type: cell-based; settings: HL-60, 72 h

T1 sequence (P21589 whole entry, the tested form may be a part): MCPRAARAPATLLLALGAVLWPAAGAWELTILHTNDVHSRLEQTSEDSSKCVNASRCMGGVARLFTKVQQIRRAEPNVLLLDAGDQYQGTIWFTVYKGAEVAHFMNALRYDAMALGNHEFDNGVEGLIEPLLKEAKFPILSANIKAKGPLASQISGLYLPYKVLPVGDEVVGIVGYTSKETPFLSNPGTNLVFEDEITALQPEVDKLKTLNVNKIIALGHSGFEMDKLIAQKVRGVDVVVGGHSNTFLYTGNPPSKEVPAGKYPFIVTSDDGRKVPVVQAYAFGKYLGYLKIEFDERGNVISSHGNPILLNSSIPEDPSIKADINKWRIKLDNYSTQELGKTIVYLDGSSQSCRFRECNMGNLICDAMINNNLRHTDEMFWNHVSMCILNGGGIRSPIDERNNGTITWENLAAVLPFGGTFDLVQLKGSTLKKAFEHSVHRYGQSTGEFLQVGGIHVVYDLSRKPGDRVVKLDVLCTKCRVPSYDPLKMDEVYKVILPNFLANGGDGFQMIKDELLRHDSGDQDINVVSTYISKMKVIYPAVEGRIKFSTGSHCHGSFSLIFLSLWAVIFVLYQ

Row | Compound | IC50 (5'-nucleotidase [2]) [µM] | IC50 (5'-nucleotidase [3]) [µM] | inhibition (5'-nucleotidase [1]) | IC50 (CCRF-CEM) [µM] | IC50 (Granta) [µM] | IC50 (5'-nucleotidase [1]) [µM] | IC50 (RL) [µM] | IC50 (HL-60) [µM]
1 | Nc1nc(Cl)nc2c1ncn2[C@H]1C[C@H](O)[C@@H](COP(=O)(O)CP(=O)(O)O)O1 | 147 | 2 | Active |  |  |  |  | 
2 | Nc1nc(Cl)nc2c1ncn2[C@@H]1O[C@H](CO)[C@@H](O)[C@@H]1F [CLOFARABINE] |  |  |  | 0.044 | 0.017 |  | 0.38 | 0.04
3 | Nc1ncnc2c1ncn2[C@@H]1O[C@H](COP(=O)(O)CP(=O)(O)O)[C@@H](O)[C@H]1O [PHOSPHOMETHYLPHOSPHONIC ACID ADENOSYL ESTER] | 21.4 | 23.6 |  |  |  | 3.8 |  | 

The next lines start with results.

Row | IC50 (5'-nucleotidase [2]) [µM] | IC50 (5'-nucleotidase [3]) [µM] | inhibition (5'-nucleotidase [1]) | Compound | IC50 (CCRF-CEM) [µM] | IC50 (Granta) [µM] | IC50 (5'-nucleotidase [1]) [µM] | IC50 (RL) [µM] | IC50 (HL-60) [µM]
4 | 3.2 | 0.24 |  | Nc1nc(Cl)nc2c1ncn2[C@@H]1O[C@H](COP(=O)(O)CP(=O)(O)O)[C@@H](O)[C@@H]1F | 50.6 | 39.5 | 0.18 | > 300 | 49.4
5 | 112 | 2.2 | Active | Nc1nc(F)nc2c1ncn2[C@@H]1O[C@H](COP(=O)(O)CP(=O)(O)O)[C@@H](O)[C@@H]1O |  |  |  |  | 
